Values of other authors as cited in article PMC11585628 (Nature Communications, 2024).

System: SARS-CoV-2
Conditions: read-out: EC50 for antiviral effects

XR8-24
EC50: 1200 nM
